This note sets out measurements from PMC4306947, “Synthesis and Antiproliferative Activity of Thiazolyl-bis-pyrrolo[2,3-b]pyridines and Indolyl-thiazolyl-pyrrolo[2,3-c]pyridines, Nortopsentin Analogues” (Marine Drugs, 2015).

One experiment has as its system HCT-116. The experiment in a line: NCI-60 in vitro tumor cell screen, HCT-116. As to conditions: Homo sapiens; HCT-116, Colon Cancer; measured by NCI after 72 h treatment. It is filed as cell-based. Here is the method: (§1) All the synthesized thiazoles 1a–l, 2a–j, 3a–f and 4a–f were evaluated by the National Cancer Institute (Bethesda MD) for cytotoxicity against the NCI-60 cell line panel using standard protocols. Initially, all derivatives were tested at a single dose (10^−5 M) on the full panel of approximately 60 human tumor cell lines derived from 9 human cancer cell types, that have been grouped in disease sub-panels including leukemia, non-small-cell lung, colon, central nervous system (CNS), melanoma, ovarian, renal, prostate and breast cancers (data not shown). Compounds 1k and 4c were further selected for full evaluation at five concentration levels (10^−4–10^−8 M).
(§2) The antitumor activity of compounds 1k and 4c was given by three parameters for each cell line: GI50 (GI50 is the molar concentration of the compound that inhibits 50% net cell growth), TGI (TGI is the molar concentration of the compound leading to total inhibition of net cell growth), and LC50 (LC50 is the molar concentration of the compound that induces 50% net cell death). The average values of mean graph midpoint (MG_MID) were calculated for each of these parameters.

Another experiment relates to HCT-15. Nature of the experiment: NCI-60 in vitro tumor cell screen, HCT-15. The note with it: Homo sapiens; HCT-15, Colon Cancer. It is filed as cell-based. Here is the method: as §1, §2
In the next experiment the test system is SF-539. Nature of the experiment: NCI-60 in vitro tumor cell screen, SF-539. It is filed as cell-based. As to conditions: Homo sapiens; SF-539, CNS Cancer. Here is the method: as §1, §2
Another experiment concerns LOX IMVI. Nature of the experiment: NCI-60 in vitro tumor cell screen, LOX IMVI. Format: cell-based. The note with it: Homo sapiens, Melanoma. Here is the method: as §1, §2
A further experiment deals with MALME-3M. Nature of the experiment: NCI-60 in vitro tumor cell screen, MALME-3M. As to conditions: Homo sapiens, Melanoma. It is filed as cell-based. Here is the method: as §1, §2
In another experiment the test system is SK-MEL-5. The experiment in a line: NCI-60 in vitro tumor cell screen, SK-MEL-5. Format: cell-based. As to conditions: Homo sapiens; SK-MEL-5, Melanoma. Here is the method: as §1, §2
The next experiment has as its system UACC-62. The experiment in a line: NCI-60 in vitro tumor cell screen, UACC-62. Format: cell-based. As to conditions: Homo sapiens; UACC-62, Melanoma. Here is the method: as §1, §2
Another experiment concerns OVCAR-4. The experiment in a line: NCI-60 in vitro tumor cell screen, OVCAR-4. The note with it: Homo sapiens; OVCAR-4, Ovarian Cancer. It is filed as cell-based. Here is the method: as §1, §2
A further experiment deals with OVCAR-8. The experiment in a line: NCI-60 in vitro tumor cell screen, OVCAR-8. It is filed as cell-based. As to conditions: Homo sapiens; OVCAR-8, Ovarian Cancer. The protocol: as §1, §2
A further experiment concerns CAKI-1. The experiment in a line: NCI-60 in vitro tumor cell screen, CAKI-1. It is filed as cell-based. As to conditions: Homo sapiens; CAKI-1, Renal Cancer. The protocol: as §1, §2
The subject of the next experiment is SR. Nature of the experiment: NCI-60 in vitro tumor cell screen, SR. It is filed as cell-based. The note with it: Homo sapiens, Leukemia. The protocol:
as §1, §2

The subject of the next experiment is COLO-205. The experiment in a line: NCI-60 in vitro tumor cell screen, COLO-205. The note with it: Homo sapiens; COLO-205, Colon Cancer. Format: cell-based. The protocol:
as §1, §2

The subject of a further experiment is SK-MEL-28. Nature of the experiment: NCI-60 in vitro tumor cell screen, SK-MEL-28. Format: cell-based. As to conditions: Homo sapiens; SK-MEL-28, Melanoma. Here is the method:
as §1, §2

The test system of a further experiment is UACC-257. The experiment in a line: NCI-60 in vitro tumor cell screen, UACC-257. It is filed as cell-based. The note with it: Homo sapiens; UACC-257, Melanoma. Here is the method: as §1, §2
The subject of the next experiment is SN12C. The experiment in a line: NCI-60 in vitro tumor cell screen, SN12C. Format: cell-based. The note with it: Homo sapiens, Renal Cancer. Here is the method:
as §1, §2

The test system of a further experiment is UO-31. Nature of the experiment: NCI-60 in vitro tumor cell screen, UO-31. It is filed as cell-based. As to conditions: Homo sapiens; UO-31, Renal Cancer. The protocol: as §1, §2
The subject of a further experiment is HCT-116 cells. Nature of the experiment: Acidic vesicular organelles by acridine orange staining (FACS). Format: cell-based, human. As to conditions: 24 h. The protocol:
AO is a fluorescent molecule used either to identify apoptotic cell death or autophagy. It can interact with DNA emitting green fluorescence or accumulate in acidic organelles where it is protonated forming aggregates that emit bright red fluorescence. Briefly, cells were stained with a AO solution (5 μg/mL) for 15 min. Then they were washed, re-suspended in PBS and subjected to FACS analysis. The green (510–530 nm, FL-1) and red (650 nm, FL-3) fluorescence of AO with blue (488 nm) excitation was determined over 10,000 events.

For orientation: GI50 means the concentration giving 50% growth inhibition. As to `Cn1cc(-c2csc(-c3c[nH]c4ncccc34)n2)c2cc(Br)cnc21` [Compound 1k, 5-Bromo-1-methyl-3-[2-(1H-pyrrolo[2,3-b]pyridin-3-yl)-1,3-thiazol-4-yl]-1H-pyrrolo[2,3-b]pyridine], the GI50 in the experiment on HCT-116 is 2910 nM; in the experiment on HCT-15 it was 13700 nM; in the experiment with SF-539 it was 27700 nM; in the experiment with LOX IMVI, 4260 nM; with MALME-3M, 3010 nM; with SK-MEL-5 it was 2050 nM. The GI50 in the experiment on UACC-62 was found to be 3470 nM; in the experiment with OVCAR-4, 2030 nM; with OVCAR-8, 3720 nM; in the experiment with CAKI-1 it was 1560 nM.
For the molecule `Clc1nccc2c(-c3csc(-c4c[nH]c5ccc(Br)cc45)n3)c[nH]c12` [Compound 4c, 3-[2-(5-Bromo-1H-indol-3-yl)-1,3-thiazol-4-yl]-7-chloro-1H-pyrrolo[2,3-c]pyridine], the concentration for 50% growth inhibition (GI50) in the experiment on SR amounted to 1270 nM; with COLO-205, 1800 nM; in the experiment with HCT-116, 2350 nM; in the experiment with HCT-15 it was 1400 nM; with SF-539 it was 1870 nM; with LOX IMVI, 1630 nM. In addition, the GI50 in the experiment with SK-MEL-28 worked out at 1850 nM; in the experiment on SK-MEL-5, 2610 nM; in the experiment on UACC-257, 2680 nM; in the experiment on UACC-62, 2190 nM; in the experiment with OVCAR-4 it was 3250 nM; in the experiment with OVCAR-8, 3650 nM. For the same molecule, the values for the GI50 in the experiment with CAKI-1, with SN12C and in the experiment on UO-31 were 1960 nM, 3350 nM and 930 nM, respectively. Also, the “increase of the bright red to green fluorescence intensity ratio of acridine orange” value in the experiment on HCT-116 cells (concentration GI30, vs control) was 10 fold. Also, in the experiment with HCT-116 cells (highest drug concentration), the “percent of cells with AVO with respect to control” value is on record as “did not significantly modify”.
